This experiment has as its system C2C12 muscle cells. The experiment can be described thus: Analysis of glucose absorption (2-deoxyglucose) in differentiated C2C12 muscle cells. Format: cell-based. Conditions: test materials 10 μM, times relative to control group. The essentials:
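Uptake of 0.2 μCi 2-deoxyglucose over 20 min, counted radiometrically in lysed cells. Before tracer, compounds (10 μM) were applied for 30 min to C2C12 cells differentiated 6 days in 1% serum and equilibrated 3 h in 5 mM glucose KRB.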
`Clc1ccc(CNc2nc(-c3ccccc3)nc3ccccc23)cc1Cl` [Compound 89, (3,4-Dichlorobenzyl)-(2-phenylquinazolino-4-yl)-amine] gave a Glucose absorption of 1.4.
Consider `COc1cccc(CNc2nc(-c3ccccn3)nc3ccccc23)c1` [Compound 224, (3-Methoxybenzyl)-(2-pyridino-2-ylquinazolino-4-yl)-amine], for which the Glucose absorption came out at 1.1.
`CC(C)Nc1nc(-c2ccccc2)nc2ccccc12` [Compound 60, Isopropyl-(2-phenylquinazolino-4-yl)-amine] showed a Glucose absorption of 1.0.
As for `CCCCCCCCCCCc1ccc(Nc2nc(-c3ccccc3)nc3ccccc23)cc1` [Compound 74, (2-Phenylquinazolino-4-yl)-(4-undecyl-phenyl)-amine], the Glucose absorption was determined as 0.9.
To `OCCOCCNc1nc(-c2ccccn2)nc2ccccc12` [Compound 233, 2-[2-(2-Pyridino-2-ylquinazolino-4-ylamino)-ethoxy]-ethanol] belongs 1.4; to `Cc1nc(NCCOCCO)c2ccccc2n1` [Compound 173, 2-[2-(2-Methylquinazolino-4-ylamino)-ethoxy]-ethanol], 1.3.
As for `c1coc(-c2nc(NCc3ccc4c(c3)OCO4)c3ccccc3n2)c1` [Compound 341, Benzo[1,3]dioxol-5-ylmethyl-(2-furano-2-ylquinazolino-4-yl)-amine], the figure is 0.8; as for `c1ccc(-c2nc(NCCN3CCNCC3)c3ccccc3n2)cc1` [Compound 160, (2-Phenylquinazolino-4-yl)-(2-piperazino-1-ylethyl)-amine], 2.5.
To `Fc1ccccc1CNc1nc(-c2ccccc2)nc2ccccc12` [Compound 94, (2-Fluorobenzyl)-(2-phenylquinazolino-4-yl)-amine] belongs 1.3.
In turn, `CCC(COC)Nc1nc(-c2ccccc2)nc2ccccc12` (stereo not drawn) [Compound 104, (1-Methoxymethylpropyl)-(2-phenylquinazolino-4-yl)-amine] displayed a Glucose absorption of 1.0.
In turn, `c1ccc(-c2nc(NCC3CCCCC3)c3ccccc3n2)cc1` [Compound 132, Cyclohexylmethyl-(2-phenylquinazolino-4-yl)-amine] showed a Glucose absorption of 1.3.
For `c1ccc(-c2nc(NC3CCCC3)c3ccccc3n2)cc1` [Compound 95, Cyclopentyl-(2-phenylquinazolino-4-yl)-amine], the Glucose absorption was found to be 1.2.
Consider `CCSc1nc(NC2CCN(Cc3ccccc3)CC2)c2ccccc2n1` [Compound 41, (1-Benzyl-piperidino-4-yl)-(2-ethylsulfanylquinazolino-4-yl)-amine], for which the Glucose absorption was 1.1.
Compound `CC(C)CNc1nc(-c2ccccc2)nc2ccccc12` [Compound 55, Isobutyl-(2-phenylquinazolino-4-yl)-amine] came in with a Glucose absorption of 1.2.
`CC(C)c1nc(NCCOCCO)c2ccccc2n1` [Compound 185, 2-[2-(2-Isopropylquinazolino-4-ylamino)-ethoxy]-ethanol] displayed a Glucose absorption of 1.4.
Compound `CCSc1nc(NC(CC)COC)c2ccccc2n1` (stereo not drawn) [Compound 40, (2-Ethylsulfanylquinazolino-4-yl)-(1-methoxymethylpropyl)-amine] returned a Glucose absorption of 1.2.
In turn, `COc1ccc(CCNc2nc(-c3ccccc3)nc3ccccc23)cc1` [Compound 124, [2-(4-Methoxyphenyl)-ethyl]-(2-phenylquinazolino-4-yl)-amine] showed a Glucose absorption of 1.4.
Compound `Fc1cccc(CNc2nc(-c3ccccn3)nc3ccccc23)c1` [Compound 231, (3-Fluorobenzyl)-(2-pyridino-2-ylquinazolino-4-yl)-amine] gave a Glucose absorption of 1.2.
For `CCSc1nc(NCCCc2ccccc2)c2ccccc2n1` [Compound 32, (2-Ethylsulfanylquinazoline-4-yl)-(3-phenylpropyl)-amine], the Glucose absorption is recorded as 1.1.
`COc1cc(CNc2nc(Cc3ccccc3)nc3ccccc23)cc(OC)c1OC` [Compound 332, (2-Benzylquinazolino-4-yl)-(3,4,5-trimethoxybenzyl)-amine]: the Glucose absorption stood at 1.1.
`Fc1cccc(CNc2nc(Cc3ccccc3)nc3ccccc23)c1` [Compound 219, (2-Benzylquinazolino-4-yl)-(3-fluorobenzyl)-amine]: the Glucose absorption is listed as 2.3.
`C=CCNc1nc(SCC)nc2ccccc12` [Compound 42, Allyl-(2-ethylsulfanylquinazolino-4-yl)-amine] registered a Glucose absorption of 1.1.
Compound `COc1cc(CNc2nc(-c3ccccc3)nc3ccccc23)cc(OC)c1` [Compound 92, (3,5-Dimethoxybenzyl)-(2-phenylquinazolino-4-yl)-amine] gave a Glucose absorption of 1.4.
As for `CC(C)c1nc(NCCO)c2ccccc2n1` [Compound 186, 2-(2-Isopropylquinazolino-4-ylamino)-ethanol], the figure is 1.0; as for `COc1cccc(OC)c1CNc1nc(-c2ccccc2)nc2ccccc12` [Compound 154, (2,6-Dimethoxybenzyl)-(2-phenylquinazolino-4-yl)-amine], 2.5; as for `FC(F)(F)c1cccc(CNc2nc(-c3ccccc3)nc3ccccc23)c1` [Compound 66, (2-Phenylquinazolino-4-yl)-(3-trifluoromethylbenzyl)-amine], 1.3.
As for `COc1ccc(Nc2nc(-c3ccccc3)nc3ccccc23)cc1O` [Compound 84, 2-Methoxy-5-(2-phenylquinazolino-4-ylamino)phenol], the figure is 1.0; as for `COc1ccccc1CNc1nc(-c2ccccc2)nc2ccccc12` [Compound 91, (2-Methoxybenzyl)-(2-phenylquinazolino-4-yl)-amine], 1.2.
With `COc1ccc(CNc2nc(-c3ccncc3)nc3ccccc23)cc1` [Compound 249, (4-Methoxybenzyl)-(2-pyridino-4-ylquinazolino-4-yl)-amine], the Glucose absorption is reported as 0.9.
To `CCN1CCCC1CNc1nc(-c2ccccc2)nc2ccccc12` (stereo not drawn) [Compound 117, (1-Ethyl-pyrrolidino-2-ylmethyl)-(2-phenylquinazolino-4-yl)-amine] belongs 1.4; to `Clc1ccc(-c2nc(NCCc3ccccc3)c3ccccc3n2)cc1` [Compound 263, [2-(4-Chlorophenyl)-quinazolino-4-yl]-phenethylamine], 1.1.
`OCCCCCNc1nc(-c2ccccc2)nc2ccccc12` [Compound 85, 5-(2-Phenylquinazolino-4-ylamino)-pentane-1-ol] gave a Glucose absorption of 1.0.
The compound `c1ccc(CCCCNc2nc(Cc3ccccc3)nc3ccccc23)cc1` [Compound 216, (2-Benzylquinazolino-4-yl)-(4-phenylbutyl)-amine] came in with a Glucose absorption of 2.6.
Compound `c1ccc(Cc2nc(NCc3cccc4ccccc34)c3ccccc3n2)cc1` [Compound 217, (2-Benzylquinazolino-4-yl)-naphthaleno-1-ylmethylamine] gave a Glucose absorption of 1.2.
As for `FC(F)(F)c1ccccc1CNc1nc(-c2ccccc2)nc2ccccc12` [Compound 98, (2-Phenylquinazolino-4-yl)-(2-trifluoromethylbenzyl)-amine], the Glucose absorption is 1.2.
`CCCNc1nc(SCC)nc2ccccc12` [Compound 31, (2-Ethylsulfanylquinazolino-4-yl)-propylamine] displayed a Glucose absorption of 1.1.
Regarding `Fc1cccc(CCNc2nc(-c3ccncc3)nc3ccccc23)c1` [Compound 256, [2-(3-Fluorophenyl)-ethyl]-(2-pyridino-4-ylquinazolino-4-yl)-amine], the Glucose absorption is 0.6.
Compound `FC(F)(F)c1cccc(CNc2nc(C3CCCCC3)nc3ccccc23)c1` [Compound 202, (2-Cyclohexylquinazolino-4-yl)-(3-trifluoromethylbenzyl)-amine] showed a Glucose absorption of 1.4.
For the compound `COc1cc(OC)c(CNc2nc(Cc3ccccc3)nc3ccccc23)c(OC)c1` [Compound 335, (2-Benzylquinazolino-4-yl)-(2,4,6-trimethoxybenzyl)-amine], the Glucose absorption amounted to 1.1.
Consider `CC(C)(C)c1nc(NCc2cccc(F)c2)c2ccccc2n1` [Compound 195, (2-tert-Butylquinazolino-4-yl)-(3-fluorobenzyl)-amine], for which the Glucose absorption was determined as 1.2.
Regarding `Fc1cccc(CNc2nc(-c3ccncc3)nc3ccccc23)c1` [Compound 255, (3-Fluorobenzyl)-(2-pyridino-4-ylquinazolino-4-yl)-amine], the Glucose absorption is reported as 1.3.
With `OC(CNc1nc(-c2ccccc2)nc2ccccc12)c1ccccc1` (stereo not drawn) [Compound 146, 1-Phenyl-2-(2-phenylquinazolino-4-ylamino)-ethanol], the Glucose absorption is given as 2.3.
Compound `COc1ccc(CNc2nc(-c3ccccn3)nc3ccccc23)cc1` [Compound 225, (4-Methoxybenzyl)-(2-pyridino-2-ylquinazolino-4-yl)-amine] yielded a Glucose absorption of 1.3.
As for `CCSc1nc(NCCCN2CCCCC2C)c2ccccc2n1` (stereo not drawn) [Compound 48, (2-Ethylsulfanylquinazolino-4-yl)-[3-(2-methyl-piperidino-1-yl)-propyl]-amine], the Glucose absorption amounted to 1.0.
Consider `CCC(C)Nc1nc(-c2ccccc2)nc2ccccc12` (stereo not drawn) [Compound 96, sec-Butyl-(2-phenylquinazolino-4-yl)-amine], for which the Glucose absorption was 1.3.
As for `COc1cc(OC)c(CNc2nc(-c3ccccc3)nc3ccccc23)c(OC)c1` [Compound 337, (2-Phenylquinazolino-4-yl)-(2,4,6-trimethoxybenzyl)-amine], the Glucose absorption was 1.3.
Compound `CCSc1nc(NC2CCCCC2)c2ccccc2n1` [Compound 27, Cyclohexyl-(2-ethylsulfanylquinazolino-4-yl)-amine] displayed a Glucose absorption of 1.0.
Take `COc1cccc(CNc2nc(-c3ccccc3)nc3ccccc23)c1OC` [Compound 93, (2,3-Dimethoxybenzyl)-(2-phenylquinazolino-4-yl)-amine]: the Glucose absorption was 1.1.

Source of the values: patent US20080207614A1, “QUINAZOLINE DERIVATIVES FOR THE TREATMENT AND PREVENTION OF DIABETES AND OBESITY” (SK CHEMICALS CO., LTD., priority 2004, published 2008).
